Read-outs that look alike come from different tables or passages of the source.

One series concerns Normal human melanocytes. Put plainly: Inhibitory action on elongation of dendrites. It counts as cell-based. The method, then:
According to the following method, inhibitory action on elongation of dendrites was examined using human melanocytes.
(Cell) Normal human melanocytes
(Medium) Basic medium (Medium 154S) to which the following reagents were added
(Reagent) Growth additive: bovine pituitary extract (BPE) (final concentration in the medium: 0.4% v/v), fetus bovine serum (FBS) (final concentration in the medium: 0.5% v/v), human recombinant basic fibroblast growth factor (rFGF-B) (final concentration in the medium: 3 ng/ml), hydrocortisone (final concentration in the medium: 0.18 μg/ml), insulin (final concentration in the medium: 5 μg/ml), transferrin (final concentration in the medium: 5 μg/ml), phorbol 12-myristate 13-acetate (PMA) (final concentration in the medium: 10 ng/ml), heparin (final concentration in the medium: 3 μg/ml), PSA solution (mixed solution at a concentration of penicillin: 50,000 Unit/ml, a concentration of streptomycin: 50 μg/ml, and a concentration of amphotericin B: 12.5 μg/ml. Added 1 ml thereof for 500 ml of the medium.) (Test Method)
Normal human melanocytes were seeded (3,000 cells/well) into a 48-well microplate into which the above medium (198 μl/well) was poured, and cultured at 37° C. After 24 hours, Compound 1 (centaureidin) produced in Production Example 6 was dissolved in dimethyl sulfoxide (DMSO) at final concentrations in the medium of 0 mM (control), 0.1 mM, 0.5 mM, and 1 mM, to obtain sample solutions. To 1 μl of each of those sample solutions, 9 μl of the medium were added. 2 μl of each solution were added into each well of the microplate and culture was continued. After 24 hours from addition of the samples, the length of dendrites was observed.
In the same manner as in Test Example 1, but using extracts produced in Production Examples 1 to 5, sample solutions were prepared so that the final concentration of Compound 1 (centaureidin) in the medium was 0.5 mM, to thereby examine inhibitory action on elongation of dendrites.
In the same manner as in Test Example 1, Compounds 2 to 4 were further examined for inhibitory action on elongation of dendrites under the condition that the final concentration in the medium was 0.5 mM.

The test system of a further series is melanoma B-16 cells. It counts as cell-based. Conditions: 48 hours. The method, then:
The effect of the combination of a compound (A) and 4-n-butyl resorcinol was studied using melanoma B-16 cells (obtained from Tomita Laboratory at Tohoku University, School of Medicine). MEM (modified Eagle's medium) supplemented with 15% FBS (fetal bovine serum) to which Compound 1 (centaureidin) and 4-butyl resorcinol at various concentrations were added was placed in each well of a microtiter plate. Melanoma B-16 cells were seeded into each well at a dose of 5×10^5 cells/ml and cultured for 48 hours. The cells were collected by means of centrifugal separation and washed twice with the medium, and then the color and number of the cells were judged using scores. Cells cultured without addition of both Compound 1 and 4-n-butyl resorcinol were used as a control, and judgment was carried out based on the following criteria: the color, score 0: the same as the control, score 1: slightly paler than the control, score 2: apparently paler than the control, score 3: cells were almost white, score 4: cells were white; the number of cells, score 0: almost all the cells were dead, score 1: nine-tenth of the cells were dead, score 2: about half the cells were dead, score 3: a few cells were dead, score 4: the number of cells was equal to that of the control. […] Such action is in good accordance with inhibitory action of Compound 1 on dendrites of melanocytes.

Setting [1] is: Compounds 2 to 4, final concentration in the medium 0.5 mM, 24 hours.
[2] abbreviates: centaureidin 0 mM, 4-n-butyl resorcinol 0.01 % by mass.
[3] abbreviates: centaureidin 0 mM, 4-n-butyl resorcinol 0.1 % by mass.
[4] abbreviates: centaureidin 0 mM, 4-n-butyl resorcinol 0.5 % by mass.
Where [5] appears, read: normal human melanocytes, 24 hours.
The mark [6] stands for this setting: centaureidin 0.1 mM, 4-n-butyl resorcinol 0 % by mass.
Where [7] appears, read: centaureidin 0.5 mM, 4-n-butyl resorcinol 0 % by mass.

For `CCOc1cc(-c2oc3cc(OC)c(OC)c(OCC)c3c(=O)c2OCC)ccc1OC` [Compound 3, 3,5-diethoxy-6,7-dimethoxy-2-(5-ethoxy-4-methoxyphenyl)-4H-1-benzopyran-4-one], in the series with Normal human melanocytes (setting [1]), the Length of dendrite is given as 47 ± 28 μm.
For the compound `COc1cc(OC)c(-c2oc3cc(OC)c(O)c(O)c3c(=O)c2OC)cc1O` [Compound 4, 5,6-dihydroxy-3,7-dimethoxy-2-(5-hydroxy-2,4-dimethoxyphenyl)-4H-1-benzopyran-4-one], the Length of dendrite with Normal human melanocytes (setting [1]) was 31 ± 22 μm.
Still for that read-out and setting: the figure for `COc1c(O)c(OC)c2oc(-c3cc(O)c(O)c(O)c3)c(OC)c(=O)c2c1O` [Compound 2, 5,7-dihydroxy-3,6,8-trimethoxy-2-(3,4,5-trihydroxyphenyl)-4H-1-benzopyran-4-one] is 34 ± 19 μm.
Turning to `CCCCc1ccc(O)cc1O` [4-n-butyl resorcinol], the Color of cells entry with melanoma B-16 cells (setting [2]) is given as “score 1”; in the series with melanoma B-16 cells (setting [3]) it was “score 3”; in the series with melanoma B-16 cells (setting [4]) it was “score 4”. Further, the Number of cells result is recorded as “score 3” in the series on melanoma B-16 cells (setting [2]), “score 2” with melanoma B-16 cells (setting [3]) and “score 1” in the series on melanoma B-16 cells (setting [4]).
For `COc1ccc(-c2oc3cc(O)c(OC)c(O)c3c(=O)c2OC)cc1O` [Compound 1, 5,7-dihydroxy-3,6-dimethoxy-2-(5-hydroxy-4-methoxyphenyl)-4H-1-benzopyran-4-one], the Length of dendrite with Normal human melanocytes (centaureidin 0.1 mM final concentration in medium, 24 hours after addition, control (0 mM) 140 ± 29) was determined as 101 ± 15 μm; in the series with Normal human melanocytes (centaureidin 0.5 mM final concentration in medium, 24 hours after addition, control (0 mM) 140 ± 29) it was 26 ± 8 μm; in the series with Normal human melanocytes (centaureidin 1 mM final concentration in medium, 24 hours after addition, control (0 mM) 140 ± 29) it was 24 ± 6 μm. Further, the “Concentration at which inhibitory action on elongation of dendrites can be confirmed” value with Normal human melanocytes (setting [5]) is “at least 0.1 mM”. Further, the “Concentration at which inhibitory action on elongation of dendrites is particularly remarkable” value with Normal human melanocytes (setting [5]) is at least 0.5 mM. Also, the “Inhibitory action on elongation of dendrites (in words)” value with Normal human melanocytes (normal human melanocytes, 24 hours after addition) is “elongation of dendrites is inhibited”. Also, the Color of cells result with melanoma B-16 cells (setting [6]) and in the series on melanoma B-16 cells (setting [7]) was “score 1” throughout. Moreover, the Number of cells result in the series with melanoma B-16 cells (setting [6]) and with melanoma B-16 cells (setting [7]) was “score 3” throughout. Further, in the series on melanoma B-16 cells (melanoma B-16 cells cultured with 4-n-butyl resorcinol), the “Effect on cell death (in words)” value is on record as “inhibits cell death”.

Values taken from patent US7795300B2, “External preparation for skin” (Kuraray Co., Ltd., priority 2003, dated 2010).
